In patent US7005274B1, “Methods and compositions for diagnosing and treating arthritic disorders and regulating bone mass” (MIGENIX Corp., priority 1999, dated 2006):

Key:
TC28 cells = test: Intracellular ATP, luciferase assay; assay type: cell-based; conditions: 10 ng/ml TGFβ, 0.025 mM antimycin A, 0.02 μg/ml oligomycin; mean ± SD
Procedure: Levels of total cellular ATP were measured by a modification of luciferase-based assays known in the art (Lin et al., Anal. Biochem. 24:531–540, 1968); related assays and modifications may alternatively be used (see, e.g., Turman et al., In Vitro Cell. Dev. Biol. Anim. 32:1–4, 1996, for an assay format that uses a fluorescent plate reader). In brief, 2×10^6 cells were washed and pelleted in 10 ml phosphate-buffered saline (PBS). The cell pellets were snap-frozen in a dry ice/ethanol bath, after which […] of 0.2 M HCl was added, followed by 0.3 ml of 2 mM glycine (pH 9.0). Samples were heated at 100° C. for five minutes, then placed on ice. A standard curve was developed using 0 to 500 pmol of purified ATP (disodium salt). One hundred (100) μl of the cell extract, or purified ATP standard, was added to an equal volume of the ATP assay mixture (containing MgSO4, DTT, EDTA, luciferase and luciferin, all from the Sigma Bioluminescence Assay Kit and all diluted 1:25). Following a 5 second incubation and 15 second integration, samples were read on a TD-20/20 Luminometer (Turner Designs, Sunnyvale, Calif.).

[1] = system: articular chondrocytes and TC28 cells; test: Level of glycolysis; assay type: cell-based, human; conditions: 0.025 mM antimycin A or 0.02 μM oligomycin
chondrocytes [2] = test: Collagen synthesis, [3H]-proline labeling, collagenase-sensitive protein; assay type: cell-based, human; conditions: 72 hours after addition; 0.025 mM antimycin A or non-lethal dose of oligomycin
Procedure: Collagen production was measured by tritiated proline ([^3H]-proline) biosynthetic protein labeling and measuring of collagenase-sensitive protein production (FIG. 2). Articular chondrocytres or TC28 cells (5×10^5 cells) were plated in 5 ml medium made 0.025 mM in antimycin A (or 0.02 μg/ml oligomycin, see next Example) by addition of the indicated agent every 24 hours. After the mitochondrial inhibitors were added, the cells were cultured for a further 48 hours. Medium was then removed and replaced with serum-free medium containing 5 μl/ml of [^3H]-proline, 50 μg/ml ascorbate and 100 μg/ml β-aminoproprionitrile, and incubation continued for an additional 8 hours.
Medium was then collected and precipitated with 15% trichloroacetic acid (TCA). Cells were extracted in 1 M NaCl, 1 mM N-ethylmaleimide, 0.2 mM phenylmethylsulfonyl fluoride, 0.75 mM EDTA and then precipitated with 15% TCA. The precipitates were washed 3 times with 5% TCA and once with 5% TCA containing 0.5% tannic acid. The pellet was dissolved and resuspended in 0.05 M Tris-HCl, pH 7.6, 5 mM CaCl2, 2.5 mM N-ethylmaleimide. Collagenase-sensitive protein per μg total protein was determined by incubation for 2 hours with 80 units/ml of collagenase, followed by addition of 10% TCA/0.5% tannic acid, and addition of the supernatant to scintillation fluid for standard scintillation counting in the tritium channel.

chondrocytes [3] = test: Proteoglycan synthesis, [35S] labeling; assay type: cell-based, human; conditions: 72 hours after addition; 0.025 mM antimycin A or non-lethal dose of oligomycin
Procedure: Proteoglycan synthesis was measured by [^35S]-labeling and uptake of the isotope, as well as by biosynthetic incorporation of the isotope (van Osch et al., Matrix Biol. 17:413–424, 1998) into proteoglycans extracted and subsequently purified by column chromatography on Sephadex® G-25 (Pharmacia, Piscataway, N.J.) (FIG. 3). Chondrocytes or TC28 cells (3×10^6) were plated in 30 ml of medium in a 10-cm diameter tissue culture dish and the medium was made 0.025 mM in antimycin (or 0.02 μg/ml oligomycin) every 24 hours for 72 hours. After 48 hours of culture, 20 μCi/ml of [^35S]sodium sulfate was added to each plate in serum-free medium. After a total of 72 hours, the medium was collected and the cells were washed once with phosphate buffered saline (PBS) and then scraped into 0.5 M NaOH and mixed for 48 hours at 4° C. The medium and the cell extract were eluted from Sephadex® (Pharmacia, Piscataway, N.J.) G-25M PD-10 columns with 4M guanidine-HCl. The eluted portion was added to scintillation fluid and counted (n=9 replicates in FIG. 3; *=P<0.05 by Student's t-test).

chondrocytes [4] = test: Extracellular and intracellular PPi elaboration; assay type: cell-based, human; conditions: for ability of TGFβ to increase extracellular and intracellular PPi: TGFβ 10 ng/ml; for basal PPi elaboration: absence of TGFβ
Procedure: One set of experiments described in this Example and presented in FIG. 4 examined the effects of agents that inhibit mitochondrial function on PPi elaboration in the absence of TGFβ. Chondrocytes (primary cultures and immortalized cell line TC-28) were prepared, cultured and treated with oligomycin (FIG. 4A), or with antimycin A (FIG. 4B), as in the preceding Examples. Extracellular PPi was determined radiometrically, and equalized for cellular DNA, according to the method of Terkeltaub et al. (Arthritis Rheum. 41:2152–2164, 1998). To determine intracellular PPi levels, washed cells were heated at 65° C. for 45 minutes, washed again and lysed in lysis buffer (1% Triton X-100, 1.6 mM MgCl2, 0.2 M Tris, pH 8.1), essentially according to the procedures described by Lotz et al. (Proc. Natl. Acad. Sci. U.S.A. 92:10364–10368, 1995).
Another set of experiments examined the ability of inhibitors of mitochondrial function to impact the ability of TGFβ to increase intracellular and extracellular PPi levels. Antimycin A- (FIG. 4B) or oligomycin-treated (FIG. 4A) chondrocytes, as well as control (untreated) cells, prepared as described in the preceding Examples, were incubated with or without TGFβ (10 ng/ml), and levels of extracellular and intracellular PPi levels were determined.

[5] = system: TC28 cells or articular chondrocytes expressing NTPPPH PC-1; test: PPi elaboration by PC-1 transfectants; assay type: cell-based; conditions: in the presence of antimycin A or oligomycin
Procedure: In related experiments, the effects on PPi elaboration by PC-1 transfectants of either oligomycin or antimycin A, alone or in combination with TGFβ, were determined (FIG. 4). Briefly, transient transfections were performed on 5×10^5 TC28 cells in a 35 mm tissue culture dish using Lipofectamine Plus™ (Life Technologies, Grand Island, N.Y.). Empty plasmid DNA (2 μg) or wild-type human PC-1-encoding DNA in plasmid pcDNA3.1 (2 μg) (Johnson et al., 1999 Arth. Rheum. 42:1986; Terkeltaub et al., 1994 Arthritis Rheum. 37:934–41) was added to the lipid reagent following a complex formation of the DNA to the “Plus” reagent according to the supplier's instructions, and then incubated with cells for 3 hours at 37° C. in DMEM/Fi2 medium containing 1% FCS. Cells were then washed with phosphate buffered saline (PBS), returned to complete culture medium and incubated an additional 72 hours. […] For adenoviral gene transfer, the protocol of Johnson et al. was followed (1999 Arth. Rheum. 42:1986) using articular chondrocytes which, unlike TC28 cells, cannot be efficiently transfected with plasmid DNA. […] In sum, mitochondrial function, particularly oxidative phosphorylation, appeared to provide ATP that was critical for extracellular matrix synthesis and PPi elaboration in chondrocytes.

Compound | ATP (pmoles/μg DNA):TC28 cells (TC28 cells) | effect on level of glycolysis [1] | depression of collagen synthesis (chondrocytes [2]) | depression of proteoglycan synthesis (chondrocytes [3]) | ability of TGFβ to increase extracellular and intracellular PPi (chondrocytes [4]) | basal PPi elaboration (chondrocytes [4]) | intracellular and extracellular PPi levels in NTPPPH PC-1 transfectants [5]
CC[C@H]1/C=C/C=C/C[C@@H](C)[C@H](O)[C@@](C)(O)C(=O)[C@@H](C)[C@H](O)[C@@H](C)C(=O)[C@@H](C)[C@H](O)[C@@H](C)/C=C/C(=O)O[C@@H]2[C@H](C)[C@H](CC1)O[C@]1(CC[C@H](C)[C@H](C[C@@H](C)O)O1)[C@H]2C [oligomycin] | 198.6 ± 3.7 pmoles/μg DNA | without altering the constitutively high level of glycolysis | more than 50% | more than 50% | abrogated the ability of TGFβ to increase extracellular and intracellular PPi | attenuated basal PPi elaboration | unable to increase intracellular and extracellular PPi levels
antimycin A | 69.78 ± 4.0 pmoles/μg DNA | without altering the constitutively high level of glycolysis | more than 50% | more than 50% | abrogated the ability of TGFβ to increase extracellular and intracellular PPi | attenuated basal PPi elaboration | unable to increase intracellular and extracellular PPi levels
